From ChEMBL document CHEMBL3758072, “Amphiphilic nanoparticles of resveratrol-norcantharidin to enhance the toxicity in zebrafish embryo” (Bioorg Med Chem Lett, 2016)
Calls of active or inactive are those of the source. The rule behind the calls is not given here.

Assays:
[1] = organism: Danio rerio; assay: Cytotoxicity in zebrafish embryo assessed as survival rate at 10 ppm after 80 mins relative to control; type: functional
[2] = organism: Danio rerio; assay: Cytotoxicity in zebrafish embryo assessed as survival rate at 50 ppm after 80 mins relative to control; type: functional
[3] = organism: Danio rerio; assay: Cytotoxicity in zebrafish embryo assessed as survival rate at 25 ppm after 80 mins relative to control; type: functional
[4] = system: Escherichia coli; assay: Antibacterial activity against Escherichia coli assessed as inhibition of microbial growth; type: functional, organism-based
[5] = Drug accumulation in zebrafish embryo skin at 10 ppm incubated for 80 mins; type: ADME, Danio rerio, Zone of skin; conditions: in vivo
[6] = Drug accumulation in zebrafish embryo intestinal villi at 10 ppm incubated for 80 mins; type: ADME, Danio rerio; conditions: in vivo
[7] = Drug accumulation in zebrafish embryo stomach at 10 ppm incubated for 80 mins; type: ADME, tissue-based, Danio rerio; conditions: in vivo
[8] = Drug accumulation in zebrafish embryo muscle at 10 ppm incubated for 80 mins; type: ADME, Danio rerio, Muscle tissue; conditions: in vivo

SMILES	Survival [1] [%]	Survival [2] [%]	Survival [3] [%]	growth inhibition (GI) [4]	Drug uptake [5]	Drug uptake [6]	Drug uptake [7]	Drug uptake [8]
COC(=O)[C@H]1[C@@H](C(=O)Oc2ccc(/C=C/c3cc(O)cc(O)c3)cc2)[C@@H]2CC[C@H]1O2	99.2	95.8	99.2	–	–	–	–	–
O=C1OC(=O)C2C3CCC(O3)C12 (stereo unspecified) [DEMETHYL-CANTHARIDIN]	99.2	90.8	96.7	inactive	–	–	–	–
CCN(CC)c1ccc2c(-c3ccccc3C(=O)NCCNC(=O)[C@@H]3[C@H](C(=O)OC)[C@H]4CC[C@@H]3O4)c3ccc(=[N+](CC)CC)cc-3oc2c1	–	–	–	–	Not Active	Active	Active	Not Active
